Source: patent US9855245B2, “Methods for improving lipid profiles using atrasentan” (AbbVie Inc., priority 2013, dated 2018)
Several values for one entry are separate records, joined by “and”; a condition that tells them apart may be missing. Equal entries are not always repeated.

Tests used:
[1] = tested on: ob-ZSF1 rats; assay: Example 5: preclinical study of hypotensive synergy, mean arterial pressure; format: in vivo, rat
Text: In the example, a preclinical animal model is used to evaluate whether atrasentan and an ARB cause a synergistic hypotensive effect.

[2] = tested on: subjects with type 2 diabetes and nephropathy; assay: Example 1: Phase 2b randomized, double-blind, placebo-controlled 12-week clinical study; details: for Weight, LS Mean Change from Baseline (SE): Week 12; for UACR Change from Baseline LS Mean (SE) / UACR Geometric Mean Change (Percent): baseline to final on-treatment measurement
Procedure: The primary efficacy endpoint was the change from baseline to Week 12 in log-transformed UACR with the primary analysis conducted using mixed-effects, maximum likelihood, repeated measures (MMRM) with fixed effects for treatment, country, visit, and treatment-by-visit interaction, with baseline measurement and baseline-by-visit interaction as covariates.
All safety analyses were performed on treatment-emergent adverse events only. Treatment-emergent adverse events were defined as those that first occurred or worsened on or after the date of first dose of study drug through 30 days after the last dose of study drug.

[3] = biological target: T1, ETAR (Homo sapiens, UniProt P25101); assay: Example 6: receptor occupancy data overlaid on edema risk
T1 construct: Instead it rises proportionally across the ETAR receptor occupancy curve
T1 sequence (P25101 21-427): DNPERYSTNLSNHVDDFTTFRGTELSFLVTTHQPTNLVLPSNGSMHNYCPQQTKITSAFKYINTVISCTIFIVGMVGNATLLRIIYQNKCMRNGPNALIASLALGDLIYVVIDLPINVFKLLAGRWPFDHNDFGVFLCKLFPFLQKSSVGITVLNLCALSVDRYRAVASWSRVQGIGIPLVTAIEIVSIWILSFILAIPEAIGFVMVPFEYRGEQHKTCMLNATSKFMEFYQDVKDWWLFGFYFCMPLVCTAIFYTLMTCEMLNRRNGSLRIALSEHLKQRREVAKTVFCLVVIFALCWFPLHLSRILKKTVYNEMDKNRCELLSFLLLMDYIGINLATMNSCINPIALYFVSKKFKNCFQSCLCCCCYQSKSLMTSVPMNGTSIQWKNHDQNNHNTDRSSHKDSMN

[4] = Example 6: modeling data on edema risk based on a Phase 2A study (NCT00920764); set-up: species or system human
Text: The graph was made by overlaying receptor occupancy data. (See also Table 20, below.)

## CCCCN(CCCC)C(=O)CN1C[C@H](c2ccc3c(c2)OCO3)[C@@H](C(=O)O)[C@@H]1c1ccc(OC)cc1 [Atrasentan, (2R,3R,4S)-4-(1,3-benzodioxol-5-yl)-1-[2-(dibutylamino)-2-oxoethyl]-2-(4-methoxyphenyl)pyrrolidine-3-carboxylic acid]
[1]; 1.5 mg/kg/day combined with losartan (10 mg/kg/day)
  decrease in MAP: approximately the same as the decrease in MAP when losartan was administered alone
[1]; alone at 1.5 mg/kg/day or 5 mg/kg/day
  mean arterial pressure (MAP): did not significantly affect mean arterial pressure
[2]; 0.75 mg, N = 59
  Any adverse event: 37 (62.7) N (%) of Subjects
  Any adverse event leading to discontinuation of study drug: 5 (8.5) N (%) of Subjects
  Death: 0 N (%) of Subjects
  Fatal adverse event: 0 N (%) of Subjects
  Possibly or probably drug-related adverse event: 16 (27.1) N (%) of Subjects
  Serious adverse event: 4 (6.8) N (%) of Subjects
  Severe adverse event: 5 (8.5) N (%) of Subjects
[2]; 0.75 mg/day
  Cholesterol, Difference (95% CI) from placebo: −14.1 (−28.65, 0.53) mg/dL
  Cholesterol, Final On-Treatment Visit Mean (SD): 148.9 (36.93) mg/dL
  Cholesterol, LS Mean Change from Baseline (SE): −13.0 (3.93) mg/dL
  HDL-C, Difference (95% CI) from placebo: 0.2 (−3.68, 4.13) mg/dL
  HDL-C, Final On-Treatment Visit Mean (SD): 42.1 (12.06) mg/dL
  HDL-C, LS Mean Change from Baseline (SE): −2.2 (1.05) mg/dL
  Had ≧30% Reduction in UACR and No Edema (no moderate or severe adverse event of edema): 27 (47.4) Number (%) of Subjects
  Hemoglobin, Difference (95% CI) from placebo: −0.94 (−1.423, −0.450) g/dL
  Hemoglobin, LS Mean Change from Baseline (SE): −0.97 (0.126) g/dL
  LDL-C, Difference (95% CI) from placebo: −12.5 (−23.56, −1.41) mg/dL
  LDL-C, Final On-Treatment Visit Mean (SD): 71.4 (27.39) mg/dL
  LDL-C, LS Mean Change from Baseline (SE): −10.3 (3.01) mg/dL
  Percentage of Subjects with ≧30% Reduction in Log-Transformed UACR from Baseline to Final Measurement: 50.9%
  Percentage of Subjects with ≧40% Reduction in Log-Transformed UACR from Baseline to Final Measurement: 38.6%
  Percentage of Subjects with ≧50% Reduction in Log-Transformed UACR from Baseline to Final Measurement: 29.8%
  Triglycerides, Difference (95% CI) from placebo: −37.6 (−97.24, 22.01) mg/dL
  Triglycerides, Final On-Treatment Visit Mean (SD): 179.9 (101.27) mg/dL
  Triglycerides, LS Mean Change from Baseline (SE): −4.3 (16.05) mg/dL
  Weight, Difference (95% CI) from placebo: −0.1 (−2.32, 2.07) kg
  Weight, Final On-Treatment Visit Mean (SD): 93.0 (21.28) kg
  decrease in weight at Week 12: 0.8 kg
  diastolic blood pressure, mean change from baseline to last on-treatment visit: −1.49 mmHg
  direct effect on change in UACR (path analysis vs change in systolic blood pressure): 97.52%
  fatigue leading to discontinuation: 1.7%
  geometric mean reduction in UACR, baseline to final on-treatment measurement: 37.7%
  incidence of anemia: 6.8%
  incidence of peripheral edema: 32.2%
  mean changes in weight vs placebo (repeated-measures analysis): statistically significantly different from placebo only at Week 2
  mean diastolic blood pressure, difference from baseline: statistically significant at Weeks 1, 4, and 6
  mean systolic blood pressure, difference from baseline: statistically significant at Week 4
  peripheral edema leading to discontinuation: 3.4%
  subjects discontinued because of an adverse event: 5 subjects
  subjects discontinued prematurely from the study: 13.6%
  subjects who discontinued study drug because of adverse events: 8.5%
  subjects with adverse event infection: 3.4%
  systolic blood pressure, mean change from baseline to last on-treatment visit: −2.44 mmHg
  weight, mean change from baseline to last on-treatment visit: -1.20 kg
  Weight, LS Mean Change from Baseline (SE): −0.8 (0.69) kg
  UACR Change from Baseline LS Mean (SE): −0.47 (0.12) log mg/g creatinine
  UACR Geometric Mean Change (Percent): −37.77%
[2]; 0.75 mg/day vs placebo
  UACR Between-group Comparison Difference (90% CI): −0.47 (−0.71, −0.22)
[2]; 1.25 mg, N = 64
  Any adverse event: 47 (73.4) N (%) of Subjects
  Any adverse event leading to discontinuation of study drug: 7 (10.9) N (%) of Subjects
  Death: 0 N (%) of Subjects
  Fatal adverse event: 0 N (%) of Subjects
  Possibly or probably drug-related adverse event: 27 (42.2) N (%) of Subjects
  Serious adverse event: 4 (6.3) N (%) of Subjects
  Severe adverse event: 1 (1.6) N (%) of Subjects
[2]; 1.25 mg/day
  Cholesterol, Difference (95% CI) from placebo: −17.2 (−31.60, −2.88) mg/dL
  Cholesterol, Final On-Treatment Visit Mean (SD): 147.6 (33.53) mg/dL
  Cholesterol, LS Mean Change from Baseline (SE): −16.2 (3.75) mg/dL
  HDL-C, Difference (95% CI) from placebo: 2.2 (−1.61, 6.08) mg/dL
  HDL-C, Final On-Treatment Visit Mean (SD): 43.4 (10.51) mg/dL
  HDL-C, LS Mean Change from Baseline (SE): −0.2 (1.00) mg/dL
  Had ≧30% Reduction in UACR and No Edema (no moderate or severe adverse event of edema): 28 (45.9) Number (%) of Subjects
  Hemoglobin, Difference (95% CI) from placebo: −0.98 (−1.462, −0.505) g/dL
  Hemoglobin, Final On-Treatment Visit Mean (SD): 11.79 (1.702) g/dL
  Hemoglobin, LS Mean Change from Baseline (SE): −1.02 (0.120) g/dL
  LDL-C, Difference (95% CI) from placebo: −13.1 (−23.98, −2.29) mg/dL
  LDL-C, Final On-Treatment Visit Mean (SD): 69.5 (22.54) mg/dL
  LDL-C, LS Mean Change from Baseline (SE): −11.0 (2.83) mg/dL
  Percentage of Subjects with ≧30% Reduction in Log-Transformed UACR from Baseline to Final Measurement: 52.5%
  Percentage of Subjects with ≧40% Reduction in Log-Transformed UACR from Baseline to Final Measurement: 36.1%
  Percentage of Subjects with ≧50% Reduction in Log-Transformed UACR from Baseline to Final Measurement: 29.5%
  Triglycerides, Difference (95% CI) from placebo: −64.6 (−123.32, −5.97) mg/dL
  Triglycerides, Final On-Treatment Visit Mean (SD): 167.4 (84.98) mg/dL
  Triglycerides, LS Mean Change from Baseline (SE): −31.4 (15.31) mg/dL
  Weight, Final On-Treatment Visit Mean (SD): 92.6 (18.74) kg
  diastolic blood pressure, mean change from baseline to last on-treatment visit: −2.74 mmHg
  fatigue leading to discontinuation: 3.1%
  geometric mean reduction in UACR, baseline to final on-treatment measurement: 40.7%
  incidence of anemia: 4.7%
  incidence of peripheral edema: 42.2%
  mean diastolic blood pressure, difference from baseline: statistically significant from Weeks 1 through 10
  mean increases in weight vs placebo (repeated-measures analysis): statistically significantly different from the mean changes with placebo from Week 1 through Week 8
  mean systolic blood pressure, difference from baseline: statistically significant at Weeks 1, 8, and 10
  peripheral edema leading to discontinuation: 4.7%
  subjects discontinued because of an adverse event: 7 subjects
  subjects discontinued prematurely from the study: 15.6%
  subjects who discontinued study drug because of adverse events: 10.9%
  subjects with adverse event infection: 0%
  systolic blood pressure, mean change from baseline to last on-treatment visit: −2.98 mmHg
  triglycerides, difference from placebo: statistically significant
  weight, mean change from baseline to last on-treatment visit: 2.02 kg
  Weight, LS Mean Change from Baseline (SE): 0.6 kg and 0.6 (0.66) kg
  UACR Change from Baseline LS Mean (SE): −0.52 (0.11) log mg/g creatinine
  UACR Geometric Mean Change (Percent): −40.67%
[2]; 1.25 mg/day vs placebo
  UACR Between-group Comparison Difference (90% CI): −0.51 (−0.75, −0.28)
[2]; 1.25 mg/day, Week 6
  mean ambulatory systolic blood pressure, difference from placebo: statistically significant difference
[2]; all treatment groups, change not clinically meaningful
  mean HDL-C change: decreased slightly
[2]; both atrasentan groups, at Week 2 and throughout the study
  hemoglobin relative to placebo: Statistically significantly mean decreases
[3]; Dose 0.25 mg
  Receptor Occupancy: 25%
[3]; Dose 0.75 mg
  Receptor Occupancy: 47%
[3]; Dose 1.75 mg
  Receptor Occupancy: 67%
[4]; Dose 0.25 mg
  Risk of edema: 15%
[4]; Dose 0.75 mg
  Risk of edema: 22%
[4]; Dose 1.75 mg
  Risk of edema: 43%
